Test results taken from PubChem BioAssay AID330 (DTP/NCI, 2004).
Toxic doses and inconclusive results are not listed. Rule for the calls: active = survival T/C of 150% or more; inactive = T/C below 125% in these data.

System: P388 leukemia ip, CD2F1 mice, survival T/C
Test: NCI In Vivo Anticancer Drug Screen. Data for tumor model P388 Leukemia (intraperitoneal) in CD2F1 (CDF1) mice
Conditions: endpoint: median survival time, higher = longer survival
Method in brief: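 Mice carrying the transplanted tumor received test compound or vehicle. Survival was recorded in each group, and the value is the treated-group measurement divided by that of the vehicle-treated control group.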

[1] = dose: 50.0 mg/kg/injection, schedule: Q01DX005 (ip), vehicle: Klucel (hydroxypropylcellulose) (HPC)
[2] = dose: 50.0 mg/kg/injection, schedule: Q01DX009 (ip), vehicle: saline with Tween-80
[3] = dose: 100.0 mg/kg/injection, schedule: Q01DX005 (ip), vehicle: Klucel (hydroxypropylcellulose) (HPC)
[4] = dose: 100.0 mg/kg/injection, schedule: Q01DX009 (ip), vehicle: saline with Tween-80
[5] = dose: 200.0 mg/kg/injection, schedule: Q01DX005 (ip), vehicle: Klucel (hydroxypropylcellulose) (HPC)
[6] = dose: 200.0 mg/kg/injection, schedule: Q01DX009 (ip), vehicle: saline with Tween-80
[7] = dose: 6.25 mg/kg/injection, schedule: Q01DX009 (ip), vehicle: saline
[8] = dose: 12.5 mg/kg/injection, schedule: Q01DX009 (ip), vehicle: saline
[9] = dose: 100.0 mg/kg/injection, schedule: Q01DX001 (ip), vehicle: Klucel (hydroxypropylcellulose) (HPC)
[10] = dose: 200.0 mg/kg/injection, schedule: Q01DX001 (ip), vehicle: Klucel (hydroxypropylcellulose) (HPC)
[11] = dose: 3.12 mg/kg/injection, schedule: Q01DX009 (ip), vehicle: saline
[12] = dose: 60.0 mg/kg/injection, schedule: Q01DX005 (ip), vehicle: saline with Tween-80
[13] = dose: 120.0 mg/kg/injection, schedule: Q01DX005 (ip), vehicle: saline with Tween-80

Measured: T/C

CCN(CC)Cc1c2c(O)c3c(O)c(C)c4c(c3c1O)C(=O)C(C)(O/C=C/C(OC)C(C)C(OC(C)=O)C(C)C(O)C(C)C(O)C(C)/C=C/C=C(\C)C(=O)N2)O4 (stereo not given)
inactive: dose: 12.5 mg/kg/injection, schedule: Q01DX009 (ip), vehicle: Klucel (hydroxypropylcellulose) (HPC) 115 % of control | dose: 25.0 mg/kg/injection, schedule: Q01DX009 (ip), vehicle: Klucel (hydroxypropylcellulose) (HPC) 93 % of control | [1] 103 % of control | dose: 50.0 mg/kg/injection, schedule: Q01DX009 (ip), vehicle: Klucel (hydroxypropylcellulose) (HPC) 91 % of control | [2] 110 % of control | [3] 106 % of control | dose: 100.0 mg/kg/injection, schedule: Q01DX009 (ip), vehicle: Klucel (hydroxypropylcellulose) (HPC) 86 % of control | [4] 90 % of control | [5] 94 % of control | [6] 97 % of control | dose: 400.0 mg/kg/injection, schedule: Q01DX009 (ip), vehicle: Klucel (hydroxypropylcellulose) (HPC) 111 % of control

C[N+](C)(C)CCC(=O)c1ccc(O)cc1
inactive: dose: 3.13 mg/kg/injection, schedule: Q01DX009 (ip), vehicle: saline 97 % of control | [7] 100 % of control | [8] 118 % of control

Cn1c(Cl)c(/C=N\Nc2cccc([N+](=O)[O-])c2)c2ccccc21
inactive: dose: 50.0 mg/kg/injection, schedule: Q01DX001 (ip), vehicle: Klucel (hydroxypropylcellulose) (HPC) 92 % of control | [9] 90 % of control | [10] 92 % of control

COC(c1ccc(OCc2ccccc2)cc1)C(Br)C(=O)c1ccc(Cl)cc1Cl (stereo not given)
inactive: [2] 88 % of control | [4] 101 % of control | [6] 88 % of control

COc1c(C)cc(C)c(CO)c1-c1c(CO)c(C)cc(C)c1OC
inactive: [9] 99 % of control | [10] 101 % of control | dose: 400.0 mg/kg/injection, schedule: Q01DX001 (ip), vehicle: Klucel (hydroxypropylcellulose) (HPC) 99 % of control

O=C(O)c1ccccc1N=N/C(=N\Nc1ccccc1C(=O)O)c1cccc2cccnc12
inactive: dose: 100.0 mg/kg/injection, schedule: Q04DX003 (ip), vehicle: saline with Tween-80 103 % of control | dose: 200.0 mg/kg/injection, schedule: Q04DX003 (ip), vehicle: saline with Tween-80 106 % of control | dose: 400.0 mg/kg/injection, schedule: Q04DX003 (ip), vehicle: saline with Tween-80 97 % of control

CCn1cnc(=O)[nH]c1=O
inactive: [1] 102 % of control | [3] 96 % of control | [5] 97 % of control

CC(C)CC(C(=O)O)N1C(=O)c2ccccc2C1=O (stereo not given)
inactive: [1] 98 % of control | [3] 100 % of control | [5] 95 % of control

O=C1OC(CO)C(O)C2OC(=O)c3c(c(O)c(O)c(O)c3-c3c(O)c(O)c(O)c4c3C(=O)OC2C4O)-c2c1cc(O)c(O)c2O (stereo not given)
inactive: dose: 1.56 mg/kg/injection, schedule: Q01DX009 (ip), vehicle: saline 105 % of control | [11] 105 % of control | [7] 90 % of control

CSc1c2ccncc2c(C)c2c1[nH]c1ccccc12
inactive: dose: 6.25 mg/kg/injection, schedule: Q04DX002 (ip), vehicle: distilled water + Tween-80 95 % of control | dose: 12.5 mg/kg/injection, schedule: Q04DX002 (ip), vehicle: distilled water + Tween-80 94 % of control | dose: 25.0 mg/kg/injection, schedule: Q04DX002 (ip), vehicle: distilled water + Tween-80 88 % of control | dose: 50.0 mg/kg/injection, schedule: Q04DX002 (ip), vehicle: distilled water + Tween-80 89 % of control | dose: 100.0 mg/kg/injection, schedule: Q04DX002 (ip), vehicle: distilled water + Tween-80 95 % of control | dose: 200.0 mg/kg/injection, schedule: Q04DX002 (ip), vehicle: distilled water + Tween-80 98 % of control

CC1C(=O)OC2C(O)C34C5OC(=O)C3(OC3OC(=O)C(O)C34C(C(C)(C)C)C5O)C12O (stereo not given)
inactive: dose: 5.0 mg/kg/injection, schedule: Q01DX005 (ip), vehicle: Klucel (hydroxypropylcellulose) (HPC) 93 % of control | dose: 10.0 mg/kg/injection, schedule: Q01DX005 (ip), vehicle: Klucel (hydroxypropylcellulose) (HPC) 95 % of control | dose: 20.0 mg/kg/injection, schedule: Q01DX005 (ip), vehicle: Klucel (hydroxypropylcellulose) (HPC) 89 % of control | dose: 40.0 mg/kg/injection, schedule: Q01DX005 (ip), vehicle: Klucel (hydroxypropylcellulose) (HPC) 93 % of control | dose: 80.0 mg/kg/injection, schedule: Q01DX005 (ip), vehicle: Klucel (hydroxypropylcellulose) (HPC) 89 % of control

COC(=O)c1cc2c(oc1=O)-c1ccccc1N(C=O)C2
inactive: [12] 86 % of control | [13] 88 % of control | dose: 240.0 mg/kg/injection, schedule: Q01DX005 (ip), vehicle: saline with Tween-80 98 % of control

CCN(CC)CCNc1c(OC)cc(C)c2sc3ccccc3c(=O)c12
inactive: [2] 115 % of control | [4] 117 % of control

CC(=O)OCC12C(=O)C(O)C(C)C3(CC(c4ccoc4)OC3OC(C)=O)C1CCCC21CO1 (stereo not given)
inactive: dose: 15.0 mg/kg/injection, schedule: Q01DX005 (ip), vehicle: Klucel (hydroxypropylcellulose) (HPC) 105 % of control | dose: 30.0 mg/kg/injection, schedule: Q01DX005 (ip), vehicle: Klucel (hydroxypropylcellulose) (HPC) 105 % of control | dose: 60.0 mg/kg/injection, schedule: Q01DX005 (ip), vehicle: Klucel (hydroxypropylcellulose) (HPC) 100 % of control

C/C=C(\C)N=NNc1ccccc1
inactive: dose: 100.0 mg/kg/injection, schedule: Q04DX003 (ip), vehicle: saline + Tween-80 + alcohol 114 % of control | dose: 200.0 mg/kg/injection, schedule: Q04DX003 (ip), vehicle: saline + Tween-80 + alcohol 114 % of control

N#CSCc1c(Cl)cccc1Cl
inactive: dose: 25.0 mg/kg/injection, schedule: Q01DX009 (ip), vehicle: other 104 % of control | dose: 50.0 mg/kg/injection, schedule: Q01DX009 (ip), vehicle: other 104 % of control | dose: 100.0 mg/kg/injection, schedule: Q01DX009 (ip), vehicle: other 103 % of control | dose: 200.0 mg/kg/injection, schedule: Q01DX009 (ip), vehicle: other 113 % of control

CCOc1ccn(CC(=O)N2CCOCC2)c(=O)n1
inactive: dose: 100.0 mg/kg/injection, schedule: Q04DX003 (ip), vehicle: water 90 % of control | dose: 200.0 mg/kg/injection, schedule: Q04DX003 (ip), vehicle: water 100 % of control | dose: 400.0 mg/kg/injection, schedule: Q04DX003 (ip), vehicle: water 90 % of control

O=C1c2ccccc2C(=O)c2c(NCCNCCO)ccc(NCCO)c21
inactive: dose: 5.0 mg/kg/injection, schedule: Q04DX002 (ip), vehicle: saline 115 % of control

O=c1n2ccccc2nc2nc3ccccc3n12
inactive: [12] 86 % of control | [13] 86 % of control

Cc1cc(=O)n2c(n1)Nc1ccc(Cl)cc1C2
inactive: [2] 100 % of control | [4] 98 % of control

O=C(N/N=C/c1cccc(O)c1O)c1ccccc1
inactive: dose: 50.0 mg/kg/injection, schedule: Q01DX005 (ip), vehicle: saline with Tween-80 104 % of control | dose: 100.0 mg/kg/injection, schedule: Q01DX005 (ip), vehicle: saline with Tween-80 109 % of control | dose: 200.0 mg/kg/injection, schedule: Q01DX005 (ip), vehicle: saline with Tween-80 119 % of control

Cc1cc(C(=O)O)sn1
inactive: [11] 100 % of control | [7] 100 % of control | [8] 96 % of control | dose: 25.0 mg/kg/injection, schedule: Q01DX009 (ip), vehicle: saline 100 % of control
